Assay results taken from patent US10537558B2 (Bantam Pharmaceutical, LLC, priority 2015, dated 2020).

What follows are compounds tested on BJAB cells (assay: BJAB cell proliferation (Cell Titer Glo)). Conditions: Homo sapiens, read-out: EC50.
Assay type: cell-based
Experimental: Cells were seeded in white Corning Costar 96-well assay plates at 2500 cells/well in 50 μL of medium. Serial dilutions of test compounds were made in cell culture medium/FBS+0.2% DMSO, and transferred to assay plates in a volume of 50 μL (DMSO at 0.1% final). Plates were maintained at 37° C. for approximately 72 hours. The effect of compounds on cell proliferation was evaluated using the Cell Titer Glo reagent (Promega), according to the manufacturer's instructions. Briefly, 100 μL of reagent was added per well, and after a 10 minute incubation luminescence values were determined on a plate reader (Tecan F200PRO). The percent of luminescence signal relative to untreated controls was calculated for each compound concentration, and EC50 values were determined from dose response data by non-linear regression analysis using Prism (GraphPad). The mTor inhibitor Torin1 (Liu, et al. (2010) J. Med. Chem. 53, 7146.) was used as a control. The data are summarized in the compound table provided above.
`Cc1nn(-c2nc(-c3ccc(Cl)c(Cl)c3)c(S(=O)(=O)C(C)C)s2)c(C(=O)O)c1Cc1ccccc1[N+](=O)[O-]` [Compound 55, 1-(4-(3,4-dichlorophenyl)-5-(isopropylsulfonyl)thiazol-2-yl)-3-methyl-4-(2-nitrobenzyl)-1H-pyrazole-5-carboxylic acid] was tested, and the EC50 was 10 to 25 µM.
With `Cc1nn(-c2nc(-c3ccc(Cl)c(Cl)c3)c(SC(C)C)s2)c(C(=O)O)c1-c1nnc2ccccn12` [Compound 56, 4-([1,2,4]triazolo[4,3-a]pyridin-3-yl)-1-(4-(3,4-dichlorophenyl)-5-(isopropylthio)thiazol-2-yl)-3-methyl-1H-pyrazole-5-carboxylic Acid] the EC50 was over 50 µM.
Compound `Cc1noc(C)c1-c1c(C)nn(-c2nc(-c3ccc(Cl)c(Cl)c3)c(SC(C)C)s2)c1C(=O)O` [Compound 57, 1-(4-(3,4-dichlorophenyl)-5-(isopropylthio)thiazol-2-yl)-4-(3,5-dimethylisoxazol-4-yl)-3-methyl-1H-pyrazole-5-carboxylic acid] has an EC50 of 10 to 25 µM.
For `Cc1nn(-c2nc(-c3ccc(Cl)c(Cl)c3)c(SC(C)C)s2)c(C(=O)O)c1-c1nc2ccccc2[nH]1` [Compound 58, 4-(1H-benzo[d]imidazol-2-yl)-1-(4-(3,4-dichlorophenyl)-5-(isopropylthio)thiazol-2-yl)-3-methyl-1H-pyrazole-5-carboxylic Acid], the EC50 was 25 to 50 µM.
`Cc1nn(-c2nc(-c3ccc(Cl)c(Cl)c3)c(SC(C)C)s2)c(C(=O)O)c1-c1cccc(Cl)c1C` [Compound 59, 4-(3-chloro-2-methylphenyl)-1-(4-(3,4-dichlorophenyl)-5-(isopropylthio)thiazol-2-yl)-3-methyl-1H-pyrazole-5-carboxylic Acid] was tested, and the EC50 was 5 to 10 µM.
`Cc1nn(-c2nc(-c3ccc(Cl)c(Cl)c3)c(SC(C)C)s2)c(C(=O)O)c1-c1cc(C(F)(F)F)cc(C(F)(F)F)c1` [Compound 60, 4-(3,5-bis(trifluoromethyl)phenyl)-1-(4-(3,4-dichlorophenyl)-5-(isopropylthio)thiazol-2-yl)-3-methyl-1H-pyrazole-5-carboxylic Acid] gave an EC50 of 1 to 5 µM.
`Cc1nn(-c2nc(-c3ccc(Cl)c(Cl)c3)c(SC(C)C)s2)c(C(=O)O)c1-c1cccc(C(C)C)c1` [Compound 61, 1-(4-(3,4-dichlorophenyl)-5-(isopropylthio)thiazol-2-yl)-4-(3-isopropylphenyl)-3-methyl-1H-pyrazole-5-carboxylic Acid] was tested, and the EC50 was 1 to 5 µM.
Compound `COc1ccc(C)cc1-c1c(C)nn(-c2nc(-c3ccc(Cl)c(Cl)c3)c(SC(C)C)s2)c1C(=O)O` [Compound 62, 1-(4-(3,4-dichlorophenyl)-5-(isopropylthio)thiazol-2-yl)-4-(2-methoxy-5-methylphenyl)-3-methyl-1H-pyrazole-5-carboxylic acid] has an EC50 of 5 to 10 µM.
`Cc1nn(-c2nc(-c3ccc(Cl)c(Cl)c3)c(SC(C)C)s2)c(C(=O)O)c1-c1ncc[nH]1` [Compound 63, 1-(4-(3,4-dichlorophenyl)-5-(isopropylthio)thiazol-2-yl)-4-(1H-imidazol-2-yl)-3-methyl-1H-pyrazole-5-carboxylic acid] showed an EC50 of 10 to 25 µM.
With `Cc1nn(-c2nc(-c3ccc(Cl)c(Cl)c3)c(SC(C)C)s2)c(C(=O)O)c1-c1cnn2ccccc12` [Compound 64, 1-(4-(3,4-dichlorophenyl)-5-(isopropylthio)thiazol-2-yl)-3-methyl-4-(pyrazolo[1,5-a]pyridin-3-yl)-1H-pyrazole-5-carboxylic acid] the EC50 was 10 to 25 µM.
With `Cc1nn(-c2nc(-c3ccc(Cl)c(Cl)c3)c(SC(C)C)s2)c(C(=O)O)c1-c1cnn2cccnc12` [Compound 65, 1-(4-(3,4-dichlorophenyl)-5-(isopropylthio)thiazol-2-yl)-3-methyl-4-(pyrazolo[1,5-a]pyrimidin-3-yl)-1H-pyrazole-5-carboxylic acid] the EC50 was 25 to 50 µM.
Work on `Cc1nn(-c2nc(-c3ccc(Cl)c(Cl)c3)c(SC(C)C)s2)c(C(=O)O)c1-c1cnn(C)c1` [Compound 66, 2-(4-(3,4-dichlorophenyl)-5-(isopropylthio)thiazol-2-yl)-2′,5-dimethyl-4,4′-bi(2H-pyrazole)-3-carboxylic acid] yielded an EC50 of 5 to 10 µM.
`Cc1nn(-c2nc(-c3ccc(Cl)c(Cl)c3)c(S(=O)(=O)C(C)C)s2)c(C(=O)O)c1-c1cnn(C)c1` [Compound 67, 2-(4-(3,4-dichlorophenyl)-5-(isopropylsulfonyl)thiazol-2-yl)-2′,5-dimethyl-4,4′-bi(2H-pyrazole)-3-carboxylic acid] was tested, and the EC50 was 25 to 50 µM.
With `Cc1nn(-c2nc(-c3ccc(Cl)c(Cl)c3)c(SC(C)C)s2)c(C(=O)O)c1-c1nc2ccccc2n1C` [Compound 68, 1-(4-(3,4-dichlorophenyl)-5-(isopropylthio)thiazol-2-yl)-3-methyl-4-(1-methy-1H-benzo[d]imidazol-2-yl)-1H-pyrazole-5-carboxylic acid] the EC50 was over 50 µM.
`Cc1nn(-c2nc(-c3ccc(Cl)c(Cl)c3)c(SC(C)C)s2)c(C(=O)O)c1-c1cncc(C#N)c1` [Compound 69, 4-(5-cyanopyridin-3-yl)-1-(4-(3,4-dichlorophenyl)-5-(isopropylthio)thiazol-2-yl)-3-methyl-1H-pyrazole-5-carboxylic Acid] was tested, and the EC50 was 10 to 25 µM.
Work on `CCOc1ncccc1-c1c(C)nn(-c2nc(-c3ccc(Cl)c(Cl)c3)c(SC(C)C)s2)c1C(=O)O` [Compound 70, 1-(4-(3,4-dichlorophenyl)-5-(isopropylthio)thiazol-2-yl)-4-(2-ethoxypyridin-3-yl)-3-methyl-1H-pyrazole-5-carboxylic Acid] yielded an EC50 of 10 to 25 µM.
With `Cc1cc(-c2c(C)nn(-c3nc(-c4ccc(Cl)c(Cl)c4)c(SC(C)C)s3)c2C(=O)O)n(C)n1` [Compound 71, 2′-(4-(3,4-dichlorophenyl)-5-(isopropylthio)thiazol-2-yl)-2,5,5′-trimethyl-3,4′-bi(2H-pyrazole)-3′-carboxylic Acid] the EC50 was 10 to 25 µM.
For `Cc1nn(-c2nc(-c3ccc(Cl)c(Cl)c3)c(SC(C)C)s2)c(C(=O)O)c1-c1cncnc1` [Compound 72, 1-(4-(3,4-dichlorophenyl)-5-(isopropylthio)thiazol-2-yl)-3-methyl-4-(pyrimidin-5-yl)-1H-pyrazole-5-carboxylic Acid], the EC50 was 10 to 25 µM.
`Cc1nn(-c2nc(-c3ccc(Cl)c(Cl)c3)c(SC(C)C)s2)c(C(N)=O)c1-c1cc(C(F)(F)F)cc(C(F)(F)F)c1` [Compound 73, 4-(3,5-bis(trifluoromethyl)phenyl)-1-(4-(3,4-dichlorophenyl)-5-(isopropylthio)thiazol-2-yl)-3-methyl-1H-pyrazole-5-carboxamide] gave an EC50 of over 40 µM.
`Cc1cc(C)nc(-c2c(C)nn(-c3nc(-c4ccc(Cl)c(Cl)c4)c(SC(C)C)s3)c2C(=O)O)n1` [Compound 74, 1-(4-(3,4-dichlorophenyl)-5-(isopropylthio)thiazol-2-yl)-4-(4,6-dimethylpyrimidin-2-yl)-3-methyl-1H-pyrazole-5-carboxylic acid] was tested, and the EC50 was 25 to 50 µM.
With `Cc1nn(-c2nc(-c3ccc(Cl)c(Cl)c3)c(SC(C)C)s2)c(C(=O)NCc2ccccn2)c1-c1cc(C(F)(F)F)cc(C(F)(F)F)c1` [Compound 75, 4-(3,5-bis(trifluoromethyl)phenyl)-1-(4-(3,4-dichlorophenyl)-5-(isopropylthio)thiazol-2-yl)-3-methyl-N-(pyridin-2-ylmethyl)-1H-pyrazole-5-carboxamide] the EC50 was over 40 µM.
`Cc1nn(-c2nc(-c3ccc(Cl)c(Cl)c3)c(SC(C)C)s2)c(C(=O)N(C)CCO)c1-c1cc(C(F)(F)F)cc(C(F)(F)F)c1` [Compound 76, 4-(3,5-bis(trifluoromethyl)phenyl)-1-(4-(3,4-dichlorophenyl)-5-(isopropylthio)thiazol-2-yl)-N-(2-hydroxyethyl)-N,3-dimethyl-1H-pyrazole-5-carboxamide] showed an EC50 of over 40 µM.
`Cc1nn(-c2nc(-c3ccc(Cl)c(Cl)c3)c(SC(C)C)s2)c(C(=O)N(C)c2nnc(C(F)(F)F)s2)c1-c1cc(C(F)(F)F)cc(C(F)(F)F)c1` [Compound 77, 4-(3,5-bis(trifluoromethyl)phenyl)-1-(4-(3,4-dichlorophenyl)-5-(isopropylthio)thiazol-2-yl)-N,3-dimethyl-N-(5-(trifluoromethyl)-1,3,4-thiadiazol-2-yl)-1H-pyrazole-5-carboxamide] showed an EC50 of over 40 µM.
In the case of `CCN(CC)C1CCN(C(=O)c2c(-c3cc(C(F)(F)F)cc(C(F)(F)F)c3)c(C)nn2-c2nc(-c3ccc(Cl)c(Cl)c3)c(SC(C)C)s2)C1` (stereo not drawn) [Compound 78, (4-(3,5-bis(trifluoromethyl)phenyl)-1-(4-(3,4-dichlorophenyl)-5-(isopropylthio)thiazol-2-yl)-3-methyl-1H-pyrazol-5-yl)(3-(diethylamino)pyrrolidin-1-yl)methanone], the EC50 is reported as over 40 µM.
`Cc1nn(-c2nc(-c3ccc(Cl)c(Cl)c3)c(SC(C)C)s2)c(C(=O)O)c1-c1cnccn1` [Compound 79, 1-(4-(3,4-dichlorophenyl)-5-(isopropylthio)thiazol-2-yl)-3-methyl-4-(pyrazin-2-yl)-1H-pyrazole-5-carboxylic Acid] showed an EC50 of 10 to 25 µM.
With `Cc1cc(C#N)cc(-c2c(C)nn(-c3nc(-c4ccc(Cl)c(Cl)c4)c(SC(C)C)s3)c2C(=O)O)c1` [Compound 80, 4-(3-cyano-5-methylphenyl)-1-(4-(3,4-dichlorophenyl)-5-(isopropylthio)thiazol-2-yl)-3-methyl-1H-pyrazole-5-carboxylic Acid] the EC50 was 1 to 5 µM.
With `Cc1nn(-c2nc(-c3ccc(Cl)c(Cl)c3)c(SC(C)C)s2)c(C(=O)Nc2nnn[nH]2)c1-c1cc(C(F)(F)F)cc(C(F)(F)F)c1` [Compound 81, 4-(3,5-bis(trifluoromethyl)phenyl)-1-(4-(3,4-dichlorophenyl)-5-(isopropylthio)thiazol-2-yl)-3-methyl-N-(1H-tetrazol-5-yl)-1H-pyrazole-5-carboxamide] the EC50 was over 40 µM.
